In ChEMBL document CHEMBL1129421, “Comparative molecular field analysis of haptens docked to the multispecific antibody IgE(Lb4)” (J Med Chem, 1996):

test system: Monoclonal antibody (mAb); experiment: Ability to bind to monoclonal antibody IgE (Lb4), expressed as association constant (LogKA)

Structure (SMILES)	Log KA
O=C(O)c1ccc2ccccc2c1O	6.71
O[C@@](CCN1CCCCC1)(c1ccccc1)C1CCCC1	4.84
N#C/C(=C\c1ccccc1)C(=O)O	5.04
O=C(O)C1CCCN1c1ccc([N+](=O)[O-])cc1[N+](=O)[O-] (centres undefined)	5.19
N[C@@H](CCCCNc1ccc([N+](=O)[O-])cc1[N+](=O)[O-])C(=O)O	4.38
O=C(O)C(CO)Nc1ccc([N+](=O)[O-])cc1[N+](=O)[O-] (centres undefined)	5.5
O=[N+]([O-])c1ccc(O)c([N+](=O)[O-])c1	4.89
O=C(O)CNc1ccc([N+](=O)[O-])cc1[N+](=O)[O-]	4.9
Cc1ccc(O)c(C(=O)O)c1	5.38
O=C(O)C(Cc1ccccc1)Nc1ccc([N+](=O)[O-])cc1[N+](=O)[O-] (centres undefined)	5.78
N=C(N)NCCC[C@H](Nc1ccc([N+](=O)[O-])cc1[N+](=O)[O-])C(=O)O	5.04
O=C(O)CC(Nc1ccc([N+](=O)[O-])cc1[N+](=O)[O-])C(=O)O (centres undefined)	5.5
O=C(O)c1cccc(C(=O)O)c1C(=O)O	4.77
O=C(O)C(Cc1c[nH]c2ccccc12)Nc1ccc([N+](=O)[O-])cc1[N+](=O)[O-] (centres undefined)	5.93
Nc1ccc2ccccc2c1	5.71
CC(=O)Nc1nnc(S(N)(=O)=O)s1	5
Nc1ccc(/N=N/c2ccccc2)c(N)n1	6.5
CC(O)C(Nc1ccc([N+](=O)[O-])cc1[N+](=O)[O-])C(=O)O (centres undefined)	5.49
NC(=O)CCC(Nc1ccc([N+](=O)[O-])cc1[N+](=O)[O-])C(=O)O (centres undefined)	5.08
NC(=O)CC(Nc1ccc([N+](=O)[O-])cc1[N+](=O)[O-])C(=O)O (centres undefined)	4.92
CSCCC(Nc1ccc([N+](=O)[O-])cc1[N+](=O)[O-])C(=O)O (centres undefined)	5.72
O=C(O)C(Cc1ccc(O)cc1)Nc1ccc([N+](=O)[O-])cc1[N+](=O)[O-] (centres undefined)	4.85
O[C@](CCN1CCCCC1)(c1ccccc1)C1CCCC1	4.84
CC(C)C(Nc1ccc([N+](=O)[O-])cc1[N+](=O)[O-])C(=O)O (centres undefined)	5.93
C[N+](C)(C)CC(O)C[N+](C)(C)C	4.66
CC(C)CC(Nc1ccc([N+](=O)[O-])cc1[N+](=O)[O-])C(=O)O (centres undefined)	5.39
O=C(O)CCC(Nc1ccc([N+](=O)[O-])cc1[N+](=O)[O-])C(=O)O (centres undefined)	4.63
O=C(CCC(=O)Oc1ccccc1C(=O)O)Oc1ccccc1C(=O)O	4.57
CC(Nc1ccc([N+](=O)[O-])cc1[N+](=O)[O-])C(=O)O (centres undefined)	5.8
